In BindingDB's records for patent US11091471 (Hoffmann-La Roche, 2021):

Target: Gamma-aminobutyric acid receptor subunit gamma-2 / Gamma-aminobutyric acid receptor subunit alpha-5 (Homo sapiens, UniProt P18507+P31644)
Assay: Electrophysiology
Protocol: Electrophysiological experiments were performed on days 3 to 5 after the micro-injection of mRNA. During the experiment the oocytes were constantly superfused by a solution containing (in mM) NaCl 90, KCl 1, HEPES 5, MgCl2 1, CaCl2 1 (pH 7.4). Oocytes were impaled by two glass microelectrodes (resistance: 0.4 MΩ) which were filled with a solution containing KCl 1M+K-acetate 1.5 M and voltage-clamped to −80 mV. The recordings were performed at room temperature using the Roboocyte two-electrode voltage clamp system (Multichannelsystem). After an initial equilibration period of 1.5 min GABA was added for 1.5 min at a concentration evoking approximately 20% of a maximal current response (EC20). After another rest interval of 2.5 min GABA was again added evoking a response of similar amplitude and shape. 0.5 min after the onset of this second GABA application the test compound, at a concentration corresponding to approximatively 30 fold its Ki, was added while GABA was still present. Current traces were recorded at a digitization rate of 10 Hz during and shortly before and after the GABA application.

Gamma-aminobutyric acid receptor subunit gamma-2 / Gamma-aminobutyric acid receptor subunit alpha-5, sequence (P18507 40-475 limits assumed): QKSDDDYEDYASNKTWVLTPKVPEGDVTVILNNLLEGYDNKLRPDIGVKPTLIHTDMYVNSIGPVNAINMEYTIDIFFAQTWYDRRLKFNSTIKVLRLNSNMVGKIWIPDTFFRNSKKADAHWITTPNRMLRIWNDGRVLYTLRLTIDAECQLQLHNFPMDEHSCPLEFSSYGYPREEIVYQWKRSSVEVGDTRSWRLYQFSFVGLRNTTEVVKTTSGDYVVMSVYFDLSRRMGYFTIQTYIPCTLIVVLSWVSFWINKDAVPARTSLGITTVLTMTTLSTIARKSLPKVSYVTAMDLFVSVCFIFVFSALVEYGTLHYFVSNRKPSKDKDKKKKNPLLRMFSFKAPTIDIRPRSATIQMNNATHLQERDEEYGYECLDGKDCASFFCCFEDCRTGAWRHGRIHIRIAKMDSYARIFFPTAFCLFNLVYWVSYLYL
Gamma-aminobutyric acid receptor subunit gamma-2 / Gamma-aminobutyric acid receptor subunit alpha-5, sequence (P31644 32-462 limits assumed): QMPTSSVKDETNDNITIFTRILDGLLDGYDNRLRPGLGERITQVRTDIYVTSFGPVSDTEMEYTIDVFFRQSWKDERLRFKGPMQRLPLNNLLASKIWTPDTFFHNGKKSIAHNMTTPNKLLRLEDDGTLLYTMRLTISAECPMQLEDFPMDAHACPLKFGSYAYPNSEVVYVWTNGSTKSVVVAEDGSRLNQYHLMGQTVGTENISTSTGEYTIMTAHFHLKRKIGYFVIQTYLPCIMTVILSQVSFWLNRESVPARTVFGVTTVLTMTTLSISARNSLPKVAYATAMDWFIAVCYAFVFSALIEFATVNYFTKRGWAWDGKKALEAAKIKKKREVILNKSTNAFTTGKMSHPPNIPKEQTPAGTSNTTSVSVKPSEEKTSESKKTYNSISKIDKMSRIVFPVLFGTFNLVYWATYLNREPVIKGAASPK

Ki: 9.3 nM
SMILES: Cc1onc(-c2ccc(Cl)nc2)c1COc1ccc(C(=O)N[C@H]2CCOC2)nn1 [US11091471, Example 160]
